Measurements from PubChem BioAssay AID2060894 (Molecular Pharmacology Branch, DTP, NCI, 2025).
Several values for one entry are separate records, joined by “and”; a condition that tells them apart may be missing. Equal values may be shown once.

Tested on: K12877-001-R-J1-PDC complex spheroid viability
Assay: Anticancer human tumor K12877-001-R-J1-PDC patient-derived lung adenocarcinoma cell line growth inhibition [RAS]
Conditions: for viability, T/C: stronger effect = lower value
In short: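 Agents were tested in combination matrices in half-log decrements from a top concentration at or near clinical Cmax (10 microM if undetermined). Targets were multi-cell spheroids of tumour lines plus HUVEC and MSC stromal cells.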

[1] = curve of first compound, second compound 0.0316 µM
[2] = curve of first compound, second compound 0.1 µM
[3] = curve of first compound, second compound 0.316 µM
[4] = curve of first compound, second compound 1 µM
[5] = second compound 0.0316 µM, first compound 0.0316 µM
[6] = second compound 0.0316 µM, first compound 0.1 µM
[7] = second compound 0.0316 µM, first compound 0.316 µM
[8] = second compound 0.0316 µM, first compound 1 µM
[9] = second compound 0.0316 µM, first compound 3.16 µM
[10] = second compound 0.0316 µM, first compound 10 µM
[11] = second compound 0.1 µM, first compound 0.0316 µM
[12] = second compound 0.1 µM, first compound 0.1 µM
[13] = second compound 0.1 µM, first compound 0.316 µM
[14] = second compound 0.1 µM, first compound 1 µM
[15] = second compound 0.1 µM, first compound 3.16 µM
[16] = second compound 0.1 µM, first compound 10 µM
[17] = second compound 0.316 µM, first compound 0.0316 µM
[18] = second compound 0.316 µM, first compound 0.1 µM
[19] = second compound 0.316 µM, first compound 0.316 µM
[20] = second compound 0.316 µM, first compound 1 µM
[21] = second compound 0.316 µM, first compound 3.16 µM
[22] = second compound 0.316 µM, first compound 10 µM
[23] = second compound 1 µM, first compound 0.0316 µM
[24] = second compound 1 µM, first compound 0.1 µM
[25] = second compound 1 µM, first compound 0.316 µM
[26] = second compound 1 µM, first compound 1 µM
[27] = second compound 1 µM, first compound 3.16 µM
[28] = second compound 1 µM, first compound 10 µM
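Also: spheroids exposed to agents for one week before readout.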
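For viability, T/C in this document: tumour cells co-cultured with HUVEC and mesenchymal stem cells in spheroids.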

C=CC(=O)N1CCN(c2nc(OCC3CCCN3C)nc3c(F)c(-c4nc(N)cc(C)c4C(F)(F)F)c(Cl)cc23)C(C)C1 (stereo unspecified)
viability, T/C (compound 0.00316 µM): 99.2% [middle of 12 runs]
viability, T/C (compound 0.1 µM): 87.8% [middle of 12 runs]
viability, T/C (compound 0.316 µM): 86% [middle of 12 runs]
IC50 (compound alone, run of 09/09/2024): > 1000 nM
IC50 (curve of compound): > 1000 nM

CCN1CCN(Cc2ccc(Nc3ncc(F)c(-c4cc(F)c5nc(C)n(C(C)C)c5c4)n3)nc2)CC1
viability, T/C (compound 0.00316 µM): 104% (2×) and 108% and 116%
viability, T/C (compound 0.01 µM): 96.5% [middle of 4 runs]
viability, T/C (compound 0.0316 µM): 100% [middle of 4 runs]
viability, T/C (compound 0.1 µM): 103% [middle of 4 runs]
viability, T/C (compound 0.316 µM): 123% [middle of 4 runs]
viability, T/C (compound 1 µM): 96.6% [middle of 4 runs]
IC50 (curve of compound): > 1000 nM

CCC(CC)c1cc(NC2CCC(N)C2)n2nccc2n1 (stereo unspecified) + C#Cc1c(F)ccc2cc(O)cc(-c3ncc4c(N5CC6CCC(C5)N6)nc(OCC56CCCN5CC(F)C6)nc4c3F)c12
IC50 [1]: 1540 nM
IC50 [2]: 1690 nM
IC50 [3]: 1620 nM
IC50 [4]: 1810 nM
IC50 (curve of first compound, second compound 3.16 µM): 1580 nM
IC50 (curve of first compound, second compound 10 µM): 1450 nM
viability, T/C [5]: 89.6%
viability, T/C [6]: 99.2%
viability, T/C [7]: 91.7%
viability, T/C [8]: 78.1%
viability, T/C [9]: 2.8%
viability, T/C [10]: 1.63%
viability, T/C [11]: 107%
viability, T/C [12]: 92.8%
viability, T/C [13]: 103%
viability, T/C [14]: 89.6%
viability, T/C [15]: 2.62%
viability, T/C [16]: 1.37%
viability, T/C [17]: 114%
viability, T/C [18]: 111%
viability, T/C [19]: 93.4%
viability, T/C [20]: 83.6%
viability, T/C [21]: 3.3%
viability, T/C [22]: 1.42%
viability, T/C [23]: 102%
viability, T/C [24]: 88.8%
viability, T/C [25]: 105%
viability, T/C [26]: 102%
viability, T/C [27]: 2.94%
viability, T/C [28]: 1.04%
viability, T/C (second compound 3.16 µM, first compound 0.0316 µM): 109%
viability, T/C (second compound 3.16 µM, first compound 0.1 µM): 105%
viability, T/C (second compound 3.16 µM, first compound 0.316 µM): 103%
viability, T/C (second compound 3.16 µM, first compound 1 µM): 81.1%
viability, T/C (second compound 3.16 µM, first compound 3.16 µM): 2.74%
viability, T/C (second compound 3.16 µM, first compound 10 µM): 1.05%
viability, T/C (second compound 10 µM, first compound 0.0316 µM): 102%
viability, T/C (second compound 10 µM, first compound 0.1 µM): 86.2%
viability, T/C (second compound 10 µM, first compound 0.316 µM): 93.3%
viability, T/C (second compound 10 µM, first compound 1 µM): 72.4%
viability, T/C (second compound 10 µM, first compound 3.16 µM): 2.41%
viability, T/C (second compound 10 µM, first compound 10 µM): 1.21%

CCC(CC)c1cc(NC2CCC(N)C2)n2nccc2n1 (stereo unspecified) + C=CC(=O)N1CCN(c2nc(OCC3CCCN3C)nc3c(F)c(-c4nc(N)cc(C)c4C(F)(F)F)c(Cl)cc23)C(C)C1
IC50 (curve of first compound, second compound 0.00316 µM): 1690 nM
IC50 (curve of first compound, second compound 0.01 µM): 1430 nM
IC50 [1]: 1580 nM
IC50 [2]: 1400 nM
IC50 [3]: 1480 nM
IC50 [4]: 1440 nM
viability, T/C (second compound 0.00316 µM, first compound 0.0316 µM): 97%
viability, T/C (second compound 0.00316 µM, first compound 0.1 µM): 94.7%
viability, T/C (second compound 0.00316 µM, first compound 0.316 µM): 98%
viability, T/C (second compound 0.00316 µM, first compound 1 µM): 89.6%
viability, T/C (second compound 0.00316 µM, first compound 3.16 µM): 2.45%
viability, T/C (second compound 0.00316 µM, first compound 10 µM): 0.94%
viability, T/C (second compound 0.01 µM, first compound 0.0316 µM): 91.2%
viability, T/C (second compound 0.01 µM, first compound 0.1 µM): 99.4%
viability, T/C (second compound 0.01 µM, first compound 0.316 µM): 93.2%
viability, T/C (second compound 0.01 µM, first compound 1 µM): 71.3%
viability, T/C (second compound 0.01 µM, first compound 3.16 µM): 2.11%
viability, T/C (second compound 0.01 µM, first compound 10 µM): 0.91%
viability, T/C [5]: 99.3%
viability, T/C [6]: 95.7%
viability, T/C [7]: 86.2%
viability, T/C [8]: 81.5%
viability, T/C [9]: 2.25%
viability, T/C [10]: 1.53%
viability, T/C [11]: 85.2%
viability, T/C [12]: 78.3%
viability, T/C [13]: 83.4%
viability, T/C [14]: 70%
viability, T/C [15]: 1.91%
viability, T/C [16]: 0.93%
viability, T/C [17]: 88.3%
viability, T/C [18]: 91.9%
viability, T/C [19]: 86.3%
viability, T/C [20]: 74.7%
viability, T/C [21]: 2.48%
viability, T/C [22]: 0.97%
viability, T/C [23]: 86.2%
viability, T/C [24]: 80.6%
viability, T/C [25]: 94.8%
viability, T/C [26]: 72.5%
viability, T/C [27]: 1.96%
viability, T/C [28]: 1.06%

CCc1c2c(nc3ccc(O)cc13)-c1cc3c(c(=O)n1C2)COC(=O)[C@]3(O)CC
viability, T/C (compound 0.000949 µM): 99.2% [middle of 4 runs]
viability, T/C (compound 0.00949 µM): 14% [middle of 4 runs]
viability, T/C (compound 0.03 µM): 5.09% [middle of 4 runs]
viability, T/C (compound 0.0949 µM): 3.24% [middle of 4 runs]
viability, T/C (compound 0.3 µM): 1.19% [middle of 4 runs]
IC50 (curve of compound): 5.02 nM [middle of 4 runs]

CCC(CC)c1cc(NC2CCC(N)C2)n2nccc2n1 (stereo unspecified)
viability, T/C (compound 0.0316 µM): 104% [middle of 4 runs]
viability, T/C (compound 0.1 µM): 87.1% [middle of 4 runs]
viability, T/C (compound 0.316 µM): 103% [middle of 4 runs]
viability, T/C (compound 1 µM): 86.7% [middle of 4 runs]
viability, T/C (compound 3.16 µM): 2.99% [middle of 4 runs]
viability, T/C (compound 10 µM): 1.41% [middle of 4 runs]
IC50 (curve of compound): 1.65 µM [middle of 4 runs]

CC(=O)OC12COC1CC(O)C1(C)C(=O)C(O)C3=C(C)C(OC(=O)C(O)C(NC(=O)OC(C)(C)C)c4ccccc4)CC(O)(C(OC(=O)c4ccccc4)C21)C3(C)C (stereo unspecified)
viability, T/C (compound 0.0316 µM): 8.58% [middle of 4 runs]
viability, T/C (compound 0.1 µM): 6.5% [middle of 4 runs]
viability, T/C (compound 0.316 µM): 5.06% [middle of 4 runs]
viability, T/C (compound 1 µM): 4.96% [middle of 4 runs]
viability, T/C (compound 3.16 µM): 6.68% [middle of 4 runs]
viability, T/C (compound 10 µM): 15% [middle of 4 runs]
IC50 (curve of compound): < 31.6 nM
